Assays:
[1] = test system: EGFP654 mice; assay: Acute toxicity, blood chemistry parameters in EGFP654 mice; format: in vivo, mouse; conditions: 7.5 mg/kg i.v.; data not shown
Source text: (§1) All animal procedures were in accordance with guidelines of the UNC Laboratory Animal Medicine Department and with federal guidelines. The EGFP654 transgenic mouse has been described previously (Sazani, P., et al., Nature biotechnology, 20, 1228-1233 (2002), Roberts, J., et al., Mol Ther, 14, 471-475 (2006)). A reporter gene comprised of the EGFP coding sequence is interrupted by an aberrantly spliced intron. Delivery of an appropriate SSO to the nucleus of tissue cells will correct splicing leading the expression of normal EGFP mRNA and protein. EGFP654 mice were administered 25 mg/kg SS0623 or mis-matched oligonucleotide in PBS by intra-peritoneal injection on two consecutive days. One day later the mice received 7.5 mg/kg UNC10217938A intravenously in a diluent of 5% PEG400, or diluent only. After 24 h the mice were euthanized and cardiac blood and tissues samples collected. Tissues for fluorescence microscopy to visualize EGFP were fixed in cold 1.5% paraformaldehyde in PBS and then processed for cryosectioning (Sazani, P., et al., Nature biotechnology, 20, 1228-1233 (2002)). Tissues for RNA analysis were collected from mice euthanized at 4 h and ere quick frozen on dry ice. All procedures involving live animals were conducted by the UNC Animal Studies Core facility. Blood samples were analyzed by the UNC Animal Clinical Chemistry Core facility.

[2] = test system: HeLa cells; assay: Live cell confocal microscopy: subcellular distribution of TAMRA oligonucleotide and organelle markers; format: cell-based, human
Procedure: FIG. 3A: Effects on Cell Morphology and Subcellular Distribution of Oligonucleotide: Quantitation of Colocalization. HeLa cells were transfected with baculovirus expression vectors for GFP-Rab7a (late endosome marker) or GFP-LAMP-1 (lysosome marker). The cells were then incubated with 300 nM SSO 623-TAMRA for 16 h. Cells were then treated with 10 uM 7938 for 1 h or maintained as controls. Live cells were imaged using a confocal microscope with environmental stage. Co-localization of GFP and TAMRA oligonucleotide was quantitated using the Image J Coloc2 plug-in and expressed as the Manders correlation coefficient. Individual cells were analyzed and the data summated. Means and standard errors shown. N=9-20. ** represents p<0.002 compared to Rab 7 control.
FIG. 3B. Effects on Cell Morphology and Subcellular Distribution of Oligonucleotide: Nuclear Accumulation. TAMRA fluorescence intensity in the nucleus was quantitated using Image J. Means and standard errors shown. N=55-70. *** represents p<0.001 compared to Control.
Quantitative live cell confocal microscopy (Dunn, K. W., et al., Am J Physiol Cell Physiol, 300, C723-742 (2011)) was performed to examine the subcellular distribution of fluorescent oligonucleotide or of certain markers for endomembrane compartments. Cells (HeLa) were transfected with baculovirus expression vectors for GFP chimeras of marker proteins for several endomembrane compartments. The day following transfection, cells were incubated for 4 h with 300 nM TAMRA conjugated SSO 623 in OptiMEM after which the cells were washed and incubated in DMEM medium with 1% FBS. In some cases hit compounds were added during or after the incubation. Cells were imaged on an Olympus FV1000 MPE laser scanning confocal microscope with environmental chamber to maintain 37 C, 40% humidity and 5% C02. We used 488 nm (GFP) and 559 nm (TAMRA) as laser lines, and images were collected with a 60× oil immersion lens. Quantitation of co-localization of oligonucleotide and marker proteins utilized the Coloc2 plug-in in Image J. In some cases GFP markers for organelles were examined in cells previously fixed in 4% formaldehyde in PBS.

[3] = test system: P-glycoprotein multidrug transporter in multi-drug resistant 3T3 cells; assay: Antisense knockdown of P-glycoprotein (anti-MDR1 ASO), flow cytometry; format: cell-based, mouse
Procedure: Luciferase induction dose-response curves in a 24 well plate format with normalization on cell protein were performed as previously described (Alam, M. R. et al., Nucleic Acids Res, 36, 2764-2776 (2008), Ming, X., et al., Nucleic Acids Res, 38, 6567-6576 (2010)). Splicing modulation of the EGFP654 reporter and of endogenous Bcl-X were monitored by RT-PCR using appropriate primers. Evaluation of hit compound effects on antisense actions involved ‘knockdown’ of MDR1 pre-mRNA and its protein product in multi-drug resistant mouse 3T3 cells. Cell surface expression of P-glycoprotein was monitored using an Alexa-488 conjugated monoclonal antibody and flow cytometry as previously described (Ming, X. et al., Nucleic Acids Res, 41, 3673-3687 (2013), Fisher, M., et al., Nucleic Acids Res, 35, 1064-1074 (2007)). Evaluation of effects on siRNA utilized a HeLa cell line stably transfected with an EGFP expression cassette. Cholesterol-conjugated siRNAs were used to attain sufficient uptake. Cells were incubated with the siEGFP or control siRNA, rinsed, and then briefly exposed to hit compound. After further incubation expression of EGFP was monitored by flow cytometry. In cases where treatment with Lipofectamine 2000 was used as a positive control, the manufacturer's protocol was followed. […]

[4] = test system: EGFP654 transgenic mouse; assay: In vivo splice correction in EGFP654 transgenic mouse
Source text: FIG. 4. In vivo effects: Quantitation of RT-PCR. Gel bands were quantitated using a Typhoon imaging system. Percent of switching is the ratio of lower band to upper band ×100. *** difference from PBS control significant at the 0.001 level.
as §1
In the EGFP654 transgenic line a reporter gene comprised of the EGFP coding sequence is interrupted by an aberrantly spliced intron. Effective delivery of an appropriate SSO to the nucleus of tissue cells will correct splicing leading to expression of normal EGFP mRNA and protein in that tissue. We visualized EGFP expression by fluorescence microscopy of tissue cryosections and evaluated correction of EGFP pre-mRNA splicing by RT-PCR. […]

[5] = test system: C57BL/6 mice; assay: 7 day toxicity study; format: in vivo; conditions: doses that overlap those of FIG. 4, data not shown
[6] = test system: HeLa cell line stably transfected with an EGFP expression cassette; assay: Cholesterol-conjugated siEGFP reduction of EGFP, flow cytometry; format: cell-based, human; conditions: cholesterol-conjugated siRNA
Procedure: (§2) Luciferase induction dose-response curves in a 24 well plate format with normalization on cell protein were performed as previously described (Alam, M. R. et al., Nucleic Acids Res, 36, 2764-2776 (2008), Ming, X., et al., Nucleic Acids Res, 38, 6567-6576 (2010)). Splicing modulation of the EGFP654 reporter and of endogenous Bcl-X were monitored by RT-PCR using appropriate primers. Evaluation of hit compound effects on antisense actions involved ‘knockdown’ of MDR1 pre-mRNA and its protein product in multi-drug resistant mouse 3T3 cells. Cell surface expression of P-glycoprotein was monitored using an Alexa-488 conjugated monoclonal antibody and flow cytometry as previously described (Ming, X. et al., Nucleic Acids Res, 41, 3673-3687 (2013), Fisher, M., et al., Nucleic Acids Res, 35, 1064-1074 (2007)). Evaluation of effects on siRNA utilized a HeLa cell line stably transfected with an EGFP expression cassette. Cholesterol-conjugated siRNAs were used to attain sufficient uptake. Cells were incubated with the siEGFP or control siRNA, rinsed, and then briefly exposed to hit compound. After further incubation expression of EGFP was monitored by flow cytometry. In cases where treatment with Lipofectamine 2000 was used as a positive control, the manufacturer's protocol was followed.

[7] = test system: A375Luc705 cells; assay: Luciferase induction by RGD-SSO-albumin conjugate; format: cell-based, human; conditions: 2 h, 100 nM RGD-SSO-albumin conjugate
Procedure: FIG. 2. Effects on Receptor-Targeted oligonucleotides. A375Luc705 cells were treated with 100 nM RGD-SSO-albumin conjugate for 16 h and subsequently treated with Retro-1 (100 uM) or 7938 (5, 10 uM) for 2 h. After removal of the compound the cells were incubated for a further 24 h and then assayed for luciferase and cell protein. (A) Control; (B) RGD-SSO conjugate only; (C) RGD-SSO conjugate plus Retrol; (D) RGD-SSO conjugate plus 5 uM 7938; (E) RGD-SSO conjugate plus 10 uM 7938. Means+/−SE. N=3.
Our laboratory has pursued the use of ligand-oligonucleotide conjugates to attain receptor-selective targeted delivery (Alam, M. R., et al., Bioconjugate chemistry, 22, 1673-1681 (2011), Ming, X., et al., Biomaterials, 34, 7939-7949 (2013), Nakagawa, O., et al., Bioconjugate chemistry, 25, 165-170 (2014)). Thus we were interested in whether our compounds would affect oligonucleotides that enter cells by receptor-mediated endocytosis. We used a previously described (Ming, X., et al., Biomaterials, 34, 7939-7949 (2013)) multivalent conjugate comprised of several RGD peptide-conjugated morpholino SSOs further conjugated via bioreversible links to serum albumin as a carrier. […] We examined luciferase induction in αvβ3-expressing A375 melanoma cells that contain the Luc705 expression cassette. […] Thus 7938 can substantially enhance effects of receptor targeted oligonucleotide conjugates. […]

[8] = test system: HeLaLuc705 cells; assay: SSO623-mediated luciferase induction (splice correction), 24 well format; format: cell-based, human; conditions: for enhancement of luciferase induction as compared to SSO alone: 2 h, 100 nM SSO623
Procedure: FIG. 1B. SSO Dose-response of hit compounds. Selected hits were examined for their ability to enhance splice correction by SSO623 in the HeLa Luc 705 cell system. Cells were incubated in 24 well plates with 100 nM 623 or its mismatched control (MM) for 16 h in DMEM+10% FBS, rinsed, and then treated with various concentrations of the hit compounds, or with 100 uM Retro-1, for 2 h. The cells were then rinsed and incubation continued for an additional 4 h in DMEM+10% FBS. Cells were rinsed twice in PBS and luciferase activity (RLU) and cell protein determined. Means+/−SE. N=3. Mismatched controls were at baseline level on this scale and are not shown.
as §2

[9] = test system: HeLaLuc705 cells; assay: High throughput screen, SSO623 luciferase induction, 384 well; format: cell-based, human; conditions: library compounds at 25 uM, 5 h; 100 nM SSO623
Procedure: Our high throughput screen (HTS) utilized HeLaLuc705 cells. Delivery of an appropriate SSO to the nucleus corrects splicing and induces luciferase expression thus providing an easily interpreted positive readout (Iam, M. R. et al., Nucleic Acids Res, 36, 2764-2776 (2008), Ming, X., et al., Nucleic Acids Res, 38, 6567-6576 (2010)). Cells were trypsinized, rinsed, and suspended in Opti-MEM at 300,000 cells/ml; SSO623 was added to a final concentration of 100 nM. No lipid or polymer transfection agents were used in these assays. Opti-MEM (15 ul) followed by cell suspension (20 ul) was added to wells of 384 well plates. Cells were allowed to attach and incubate with the SSO for 16 h. During this 16 h period a set of positive control wells received chloroquine to a final concentration of 300 uM while a set of negative control wells received diluent. After the initial incubation the remaining wells received library compounds to a final concentration of 25 uM. Incubation with library compounds was at 37 C for 5 h at which time the cells were harvested and analyzed for luciferase induction. Library compounds that produced an induction of 50% that of the positive controls were considered positive in this assay and were further analyzed. Dose-response curves were developed comparing SSO623 with a mis-matched oligonucleotide. […]

[10] = 10 uM, 1 h, Manders correlation coefficient

Row | SMILES | acute toxicity (blood chemistry parameters) [1] | co-localization of TAMRA-oligonucleotide with late endosome marker Rab7 [2, 10] | co-localization of TAMRA-oligonucleotide with lysosomal marker LAMP-1 [2, 10] | accumulation of Tamra-oligonucleotide in the nucleus ([2]; TAMRA fluorescence intensity in the nucleus) | release of fluorescent dextran from endosomes ([2]; dextran of molecular mass similar to an oligonucleotide, data not shown) | amount of ASO at which strong effects were observed ([3]; ASO varied, constant concentration of compound) [nM] | enhancement of ASO action (P-glycoprotein knockdown) ([3]; anti-MDR1 ASO, data not shown) | EGFP fluorescence in liver, kidney and heart ([4]; SS0623 25 mg/kg i.p. on two days, then 7.5 mg/kg compound i.v., 24 h) | correction of EGFP pre-mRNA splicing by RT-PCR in liver, kidney and heart ([4]; SS0623 followed by compound, RNA at 4 h) | EGFP induction in skeletal muscle ([4]; SS0623 followed by compound, data not shown) | toxicity [5] | ability of siEGFP to reduce levels of EGFP [6] | ability of the conjugate to induce luciferase ([7]; 5 or 10 uM compound, compared with 100 uM Retro-1) | enhancement of luciferase induction as compared to SSO alone ([8]; 10 uM compound) [fold] | enhancement of luciferase induction as compared to SSO alone ([8]; 20 uM compound) [fold] | amount of SSO at which strong induction effects were observed ([8]; SSO varied, constant concentration of compound) [nM] | activity in high throughput screen [9] | ability of the conjugate to induce luciferase ([7]; 100 uM compound) | enhancement of luciferase induction as compared to SSO alone ([8]; 100 uM compound) [fold]
1 | CCOC(=O)Nc1cc(NCCN(C)C)c2nc(-c3ccccc3)c(-c3ccccc3)nc2n1 [compound 7938] | did not result in acute toxicity | major reduction | little effect | increase | partially released | 5 | strongly enhanced | distinct increases | correctly spliced EGFP message was found | not strongly affected | no significant evidence of toxicity | enhanced | far larger impact | 60 | 220 | 3 | active | – | –
2 | CCC(=O)N1CC(=O)Nc2ccc(Br)cc2C1c1ccccc1 (stereo not shown) [Retro-1, reference compound] | – | – | – | – | – | – | – | – | – | – | – | – | – | – | – | – | – | increased | 11

Source: US10266823B2, “Small molecules that enhance the activity of oligonucleotides” (The University of North Carolina at Chapel Hill, priority 2014, dated 2019)
